Data taken from PMC3930583 (PLoS Pathogens, 2014).

Assays:
[1] = molecular target: T1, GST-AvrBsT (Xanthomonas euvesicatoria, UniProt A0ABS8LK00); format: biochemical
[2] = molecular target: T1, GST-AvrBsT; format: biochemical; remark: listed apart in the source

## O=P(O)(O)O[C@H]1[C@H](OP(=O)(O)O)[C@@H](OP(=O)(O)O)[C@H](OP(=O)(O)O)[C@@H](OP(=O)(O)O)[C@H]1OP(=O)(O)O [inositol hexakisphosphate]
[1]
  14C autoacetylation with and without IP6, autoradiography: Auto-acetylation of GST-AvrBsT was detected in the presence of IP6 but not its absence

## CC(=O)SCCNC(=O)CCNC(=O)[C@H](O)C(C)(C)COP(=O)(O)OP(=O)(O)OC[C@H]1O[C@@H](n2cnc3c(N)ncnc32)[C@H](O)[C@@H]1OP(=O)(O)O [14C-acetyl-coenzyme A]
[2]
  14C autoacetylation, SDS-PAGE autoradiography: Wild-type GST-AvrBsT activity resulted in auto-acetylation of the enzyme and trans-acetylation of GST-ACIP1
